Assays:
MDA-MB-231 cells = assay type: cell-based
[1] = test system: Renca, MC38, and 4T1 cell lines; assay type: cell-based, mouse

Compound | vaccinia replication (MDA-MB-231 cells) | viral gene expression with HMGB1mut expression in presence of inhibitor [1]
C/C=C/C/C=C/CCC(=O)[C@H]1O[C@H]1C(N)=O [cerulenin] | significantly reduced vaccinia replication | 
Bafilomycin A1 |  | loss of the increased viral gene expression

Source: US11065286B2 (priority 2016, dated 2021)
